Test results published in patent US10300069B2, “Carbon monoxide-releasing molecules for therapeutic applications and methods of making and using thereof” (Georgia State University Research Foundation, Inc., priority 2014, dated 2019).

Key:
[1] = Completion time of reaction of TPCPD with cyclooctynes at 50 mM; assay type: physicochemical; details: 50 mM concentration
[2] = test system: RAW cells; experiment: WST-1 cytotoxicity test on RAW cells; assay type: cell-based, mouse
Protocol: In order to assess the cytotoxic effect of the reactants, 1 and 6a, as well as product 31, on RAW cells, the cytotoxicity test WST-1 was performed to examine induction by TPCPD (1) and BCN (6a) over varying concentrations and periods of time (FIGS. 3A-3C).
Different concentrations of each molecule were assessed: from 0.78 to 100 μM for 1 and 31 and 7.8 to 1000 μM for 6a. Different time points were assessed (1 h, 4 h, 8 h and 24 h). Triton 0.1% was used as a positive control of cytotoxicity and the subsequent value was established as 100% of cytotoxicity.

[3] = MTT cytotoxicity test of mannose-modified reactants (FIG. 4)
Protocol: The cytotoxicity test, MTT assay, was performed to define the concentration using TPCPD-M (57, 1 mM) and BCN-M (61, 1 mM) (FIG. 4).

[4] = Intramolecular DARinv (CO release) in DMSO/PBS (7.4) at 37° C.; assay type: physicochemical
Excerpt: (§1) Then the reaction mixture was extracted with ethyl acetate, and the obtained organic layer was dried with anhydrous Na2SO4, filtered and concentrated.
Then the reaction mixture was extracted with ethyl acetate, and the obtained organic layer was dried with anhydrous Na2SO4.
as §1

[5] = Water solubility of mannose-modified reactants; assay type: physicochemical
[6] = test system: TNF-α; experiment: LPS-induced accumulation of TNF-α by ELISA in RAW 264.7 culture supernatant; assay type: cell-based, mouse; details: tested separately (control)
Protocol: RAW264.7 cell were seeded in 6-well plates and incubated overnight. Cells were then stimulated with LPS (10 mg/mL) for 1 h. TPCPD (1) and BCN (6a) (different concentrations) were added to well after 1 hr LPS treatment (same for all wells). As a control, the product (31) was used at same concentration as the anti-inflammation test to confirm that the suppression of TNF-α is result of CO instead of the reagent (or product) themselves (compounds 1, 6a, and 31). TNF-α secretion in the medium was measured with an eBioscience kit (mouse TNF-α ELISA kit, eBioscience, San Diego, Calif., USA).
TNF-α is a major pro-inflammatory cytokine, mainly secreted from macrophages and dendritic cells. Its production is induced in vitro by stimulation with LPS. The accumulation of TNF-α was assessed by ELISA in the culture supernatant of the macrophage cell line, RAW 264.7 (FIG. 5). The cells were stimulated for 1 h and then co-treated by […] for 24 h. […] A 50% decrease of the LPS-induced accumulation of TNF-α was observed after co-treatment with TPCPD-M and BCN-M at the respective concentration of 1 mM+1 mM.
As a control, the effect of the TPCPD-M and BCN-M were tested separately (FIG. 5).

[7] = 8 h, within the concentration range studied

## OCC1[C@H]2CCC#CCC[C@@H]12 (stereo partly drawn) [BCN]
[1]
  time in which the reaction with TPCPD finished: ≤ 5 min
[2]; [7]
  cytotoxicity: Neither 6a (FIG. 3B) and nor the product (FIG. 3C) displayed any sign of cytotoxicity
[2]; 24 h, 1 mM
  cytotoxicity: 60%

## NCC(=O)O.[C-]#[O+].[C-]#[O+].[C-]#[O+].[Cl][Ru] [CORM3, reference compound]
[3]; 1 mM concentration
  decrease in cell viability: 30%

## O=C1C(c2ccccc2)=C(c2ccccc2)C(c2ccccc2)=C1c1ccccc1 [TPCPD]
[2]; 8 h, 50 μM
  toxicity (cytotoxicity, Triton 0.1% = 100%): 44%
[2]; 8 h, 100 μM
  toxicity (cytotoxicity, Triton 0.1% = 100%): 49%
[2]; 24 h, concentrations higher than 12.5 μM
  cytotoxicity: more than 50%

## OC[C@@H]1[C@H]2CCc3c(c(-c4ccccc4)c(-c4ccccc4)c(-c4ccccc4)c3-c3ccccc3)CC[C@@H]12 [compound 31]
[2]; [7]
  cytotoxicity: Neither 6a (FIG. 3B) and nor the product (FIG. 3C) displayed any sign of cytotoxicity
[2]; 24 h, within the concentration range tested
  cytotoxicity: not cytotoxic

## C#CCOc1ccccc1C1=C2C(=C(C(=O)N3CCOCC3)C1=O)c1cccc3cccc2c13 [compound 51]
[4]
  incubation time after which the intramolecular DARinv reaction was finished: 16 h

## O=C(NCCOCCOCCOC1OC(CO)C(O)C(O)C1O)OCC1[C@H]2CCC#CCC[C@@H]12 (stereo partly drawn) [compound 61]
[5]
  water solubility: water soluble
[3]; 24 h of treatment, within 1 mM concentration
  cytotoxicity (MTT): none of the compounds led to any cytotoxicity
[6]
  inhibition of the LPS-induced accumulation of TNF-α: do not lead to any inhibition

## C1#CCCCCCC1 [cyclooctyne]
[1]
  time in which the reaction with TPCPD finished: 15 min

## fluorocyclooctyne [fluorocycolooctyne]
[1]
  time after which the reaction with TPCPD had not reached completion: > 24 h
